According to patent US20260152779A1, “GENETICALLY ENGINEERED FUMONISIN SENSITIVE YEAST” (FFOQSI GMBH, priority 2022, published 2026):
Where two headings read alike, the source gives them in different places.

Assays:
wild type yeast = experiment: growth inhibition of wild type yeast by FB1; assay type: cell-based, Saccharomyces cerevisiae; settings: at a concentration of 1000 μM FB1 or more
Text: Growth rates and growth inhibition can be determined by any method well known in the art, such as, but not limited to, determining cell number, using e.g. a hemocytometer, determining cell viability, e.g. using methylene blue staining, or determining relative growth calculated as the resultant optical density ratio of toxin treated cultures to untreated controls. Also yeast dry weight can be determined or conductance change can be measured during yeast growth, employing direct and indirect methods.

YRU94ML = experiment: spotting on YPD agar plates with crude FB1, strain YRU94ML; assay type: cell-based, Saccharomyces cerevisiae; settings: crude fumonisin stock (FB1+FB2+FB3) containing >70% FB1, 30° C., 5 days
Method: (§1) In a further setting, the sensitive yeast strains YRU74, YRU94ML and YTKT33 were grown in YPD (1% yeast extract, 2% peptone, 2% glucose) overnight alongside the original resistant YPH500 strain. The next day, they were rediluted to an OD600 of 0.1. After reaching exponential growth (>0.3) they were diluted to an OD of 0.1 and diluted further (1:10 and 1:100) for spottings on YPD agar plates alongside containing different concentrations of the crude fumonisin stock (FB1+FB2+FB3, measured via LC-MS/MS) containing >70% FB1. The concentrations used for the prepared FB1 plates were calculated based on the measured FB1. 3 μl of each strain/dilution was pipetted onto the plates and left to grow at 30° C. for 5 days. The photos of these plates are shown above. […] Three different dilutions of each strain were spotted on every plate. […] Both YRU94ML and YTKT33 growth is inhibited at a concentration of 250 μM FB1.

YTKT33 [1] = experiment: spotting on YPD agar plates with crude FB1, strain YTKT33; assay type: cell-based, Saccharomyces cerevisiae; settings: crude fumonisin stock (FB1+FB2+FB3) containing >70% FB1, 30° C., 5 days
Method: as §1

YTKT33 [2] = experiment: spotting on SC-URA agar plates with FB1, strain YTKT33; assay type: cell-based, Saccharomyces cerevisiae; settings: SC-URA agar plates, 87,88% pure FB1, empty pYes2-PTEF1 vector, 30° C., 5 days
Method: In a further setting, sensitive yeast strains YRU74, YRU94ML, YTKT33 and the original yeast strain YPH500 were transformed with the empty pYes2-PTEF1 vector containing the marker URA3, so that they could grow on Synthetic Complete media lacking uracil (SC-URA). They were grown in SC-URA overnight and rediluted to an OD600 of 0.1 in the morning. After reaching exponential growth (OD600>0.3), they were diluted again for spottings on plates containing 87,88% pure FB1. 3 μl of each strain/dilution was pipetted onto the plates and left to grow at 30° C. for 5 days. The photos of these plates are shown above. […] Three spots were spotted on each plate for every strain.

Arabidopsis = settings: bioassay e.g. 10 days; cited from earlier work
[3] = system: brine shrimp (Artemia salina); settings: cited from earlier work
primary rat hepatocytes = settings: read-out: acute cytotoxicity (IC50 values); cited from earlier work
human HepG2 cells = settings: read-out: acute cytotoxicity (IC50); cited from earlier work
YPH500 = experiment: paper disk inhibition zone assay, wild-type strain YPH500; assay type: cell-based, Saccharomyces cerevisiae
YTKT33 [4] = experiment: FB1 resistance conferred by candidate genes expressed in YTKT33 on SC-URA FB1 plates; assay type: cell-based, Saccharomyces cerevisiae; settings: SC-URA plates with different FB1 concentrations, spottings OD600 0.1, 0.01, 0.001
Text: The plasmids described by Janevska et al., 2020, were kindly provided by Dr. Vito Valiante. Plasmid pYes2-PTEF1 (=empty vector, TEF1 promoter) was used to express different genes assumed to confer resistance against FB1. Candidate genes were coned behind the TEF1 promoter into that plasmid and subsequently transformed into the sensitive yeast strain YTKT33 for testing.
YOR1 (with endogenous promoter on an episomal (multicopy 2 μm) plasmid) and FvCER1 (positive control, resistance conferring ceramide synthase from Fusarium verticillioides) were used as controls. Sphingopyxis sp.

Fumonisin B1 [FB1]
growth inhibition of wild type yeast (wild type yeast): does not show significant growth inhibition
FB1 concentration at which growth is inhibited (YRU94ML): 250 µM
FB1 concentration at which growth is inhibited (YTKT33 [1]): 250 µM
FB1 concentration at which growth is inhibited (YTKT33 [2]): ~100 µM
FB1 concentration at which seed germination and root development is already strongly inhibited (Arabidopsis): 1 µM
IC50 ([3]; 24 h incubation): ~10 µM
IC50 ([3]; 48 h incubation): 1.7 µM
IC50 (primary rat hepatocytes): 2000 µM
IC50 (human HepG2 cells): 399 µM

fumonisin
development of an inhibition zone (YPH500): did not result in the development of an inhibition zone

B1: YOR1: yeast ABC transporter gene with endogenous promoter on an episomal multicopy plasmid, used as control (protein, UniProt P53049 1-1477, looked up)
Oligomycin resistance …: MTITVGDAVSETELENKSQNVVLSPKASASSDISTDVDKDTSSSWDDKSLLPTGEYIVDRNKPQTYLNSDDIEKVTESDIFPQKRLFSFLHSKKIPEVPQTDDERKIYPLFHTNIISNMFFWWVLPILRVGYKRTIQPNDLFKMDPRMSIETLYDDFEKNMIYYFEKTRKKYRKRHPEATEEEVMENAKLPKHTVLRALLFTFKKQYFMSIVFAILANCTSGFNPMITKRLIEFVEEKAIFHSMHVNKGIGYAIGACLMMFVNGLTFNHFFHTSQLTGVQAKSILTKAAMKKMFNASNYARHCFPNGKVTSFVTTDLARIEFALSFQPFLAGFPAILAICIVLLIVNLGPIALVGIGIFFGGFFISLFAFKLILGFRIAANIFTDARVTMMREVLNNIKMIKYYTWEDAYEKNIQDIRTKEISKVRKMQLSRNFLIAMAMSLPSIASLVTFLAMYKVNKGGRQPGNIFASLSLFQVLSLQMFFLPIAIGTGIDMIIGLGRLQSLLEAPEDDPNQMIEMKPSPGFDPKLALKMTHCSFEWEDYELNDAIEEAKGEAKDEGKKNKKKRKDTWGKPSASTNKAKRLDNMLKDRDGPEDLEKTSFRGFKDLNFDIKKGEFIMITGPIGTGKSSLLNAMAGSMRKTDGKVEVNGDLLMCGYPWIQNASVRDNIIFGSPFNKEKYDEVVRVCSLKADLDILPAGDMTEIGERGITLSGGQKARINLARSVYKKKDIYLFDDVLSAVDSRVGKHIMDECLTGMLANKTRILATHQLSLIERASRVIVLGTDGQVDIGTVDELKARNQTLINLLQFSSQNSEKEDEEQEAVVAGELGQLKYESEVKELTELKKKATEMSQTANSGKIVADGHTSSKEERAVNSISLKIYREYIKAAVGKWGFIALPLYAILVVGTTFCSLFSSVWLSYWTENKFKNRPPSFYMGLYSFFVFAAFIFMNGQFTILCAMGIMASKWLNLRAVKRILHTPMSYIDTTPLGRILNRFTKDTDSLDNELTESLRLMTSQFANIVGVCVMCIVYLPWFAIAIPFLLVIFVLIADHYQSSGREIKRLEAVQRSFVYNNLNEVLGGMDTIKAYRSQERFLAKSDFLINKMNEAGYLVVVLQRWVGIFLDMVAIAFALIITLLCVTRAFPISAASVGVLLTYVLQLPGLLNTILRAMTQTENDMNSAERLVTYATELPLEASYRKPEMTPPESWPSMGEIIFENVDFAYRPGLPIVLKNLNLNIKSGEKIGICGRTGAGKSTIMSALYRLNELTAGKILIDNVDISQLGLFDLRRKLAIIPQDPVLFRGTIRKNLDPFNERTDDELWDALVRGGAIAKDDLPEVKLQKPDENGTHGKMHKFHLDQAVEEEGSNFSLGERQLLALTRALVRQSKILILDEATSSVDYETDGKIQTRIVEEFGDCTILCIAHRLKTIVNYDRILVLEKGEVAEFDTPWTLFSQEDSIFRSMCSRSGIVENDFENRS
resistance to FB1 conferred by the expressed gene (YTKT33 [4]): weak resistance
